Results: US6737383B1, “Herbicidal oxadiazolidines” (priority 1999, dated 2004)

Legend:
corn = assay: Test B pre/postemergence corn; format: in vivo, Zea mays
Summary of the method: (§1)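 Response is a visual 0-to-10 score relative to untreated plants, where 0 means no effect and 10 means complete control, taken twelve to sixteen days after application. Treatments went onto soil at planting and onto foliage of 1- to 4-leaf plants, using a surfactant-containing non-phytotoxic solvent.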

blackgrass = assay: Test B pre/postemergence blackgrass; format: in vivo, Alopecurus myosuroides
Summary of the method: as §1

pigweed = assay: Test B pre/postemergence pigweed; format: in vivo, Amaranthus retroflexus
Summary of the method: as §1

bamyardgrass = assay: Test B flood test barnyardgrass; format: in vivo, Echinochloa crus-galli
Summary of the method: (§2)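 Each value is a visual injury score relative to controls, with 10 meaning complete control and 0 no effect. Evaluation took place twelve to sixteen days after the 2-leaf-stage plants were treated and kept in the greenhouse.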

bedstraw = assay: Test B pre/postemergence bedstraw; format: in vivo, Galium aparine
Summary of the method: as §1

wild oat = assay: Test B pre/postemergence wild oat; format: in vivo, Avena fatua
Summary of the method: as §1

morningglory = assay: Test B pre/postemergence morningglory; format: in vivo, Ipomoea hederacea
Summary of the method: as §1

rice = assay: Test B flood test rice; format: in vivo, Oryza sativa
Summary of the method: as §2

smallflower flatsedge = assay: Test B flood test smallflower flatsedge; format: in vivo, Cyperus difformis
Summary of the method: as §2

soybean = assay: Test B pre/postemergence soybean; format: in vivo, Glycine max
Summary of the method: as §1

sugar beet = assay: Test B pre/postemergence sugar beet; format: in vivo, Beta vulgaris
Summary of the method: as §1

velvetleaf = assay: Test B pre/postemergence velvetleaf; format: in vivo, Abutilon theophrasti
Summary of the method: as §1

rape = assay: Test B pre/postemergence rape; format: in vivo, Brassica napus
Summary of the method: as §1

surinam grass = assay: Test B pre/postemergence surinam grass; format: in vivo, Brachiaria decumbens
Summary of the method: as §1

purple nutsedge = assay: Test B pre/postemergence purple nutsedge; format: in vivo, Cyperus rotundus
Summary of the method: as §1

cocklebur = assay: Test B pre/postemergence cocklebur; format: in vivo, Xanthium strumarium
Summary of the method: as §1

[1] = Postemergence, Rate 62 g/ha, scale 0 to 10, 0 is no effect, 10 is complete control
[2] = Postemergence, Rate 250 g/ha, scale 0 to 10, 0 no effect, 10 complete control
[3] = Preemergence, Rate 62 g/ha, scale 0 to 10, 0 is no effect, 10 is complete control
[4] = Preemergence, Rate 125 g/ha, scale 0 to 10 (0 no effect, 10 complete control)
[5] = Preemergence, Rate 250 g/ha, scale of 0 to 10 where 0 is no effect and 10 is complete control
[6] = Preemergence, Rate 500 g/ha, scale 0 (no effect) to 10 (complete control)
[7] = Rate 125 g/ha, Postemergence, scale 0 to 10, 0 no effect, 10 complete control
[8] = Rate 500 g/ha, Postemergence, 0 to 10 scale (0 no effect, 10 complete control)
[9] = Rate 125 g/ha, Postemergence section (flood test species), scale 0 to 10, 0 no effect, 10 complete control
[10] = Rate 250 g/ha, headed Pre-emergence (flood test species), scale 0 to 10 (0 no effect, 10 complete control)
[11] = Rate 500 g/ha, Postemergence section of Table B, 0 to 10 scale (0 no effect, 10 complete control)
[12] = Rate 500 g/ha, headed Pre-emergence (flood test species), scale 0 to 10 (0 no effect, 10 complete control)
[13] = Rate 1000 g/ha, Pre-emergence (as headed), scale 0 to 10
[14] = flood test, listed under Postemergence, Rate 250 g/ha, scale 0 to 10, 0 no effect, 10 complete control
[15] = Rate 2000 g/ha, Pre-emergence (as headed), scale 0 to 10

Cc1cccc(C)c1-n1c(=O)on(C(=O)N(c2ccccc2)C(C)C)c1=O [Compound 46]
Corn plant response rating (corn; [1]): 0
Corn plant response rating (corn; [2]): 0
Plant response rating, Corn (corn; [3]): 0
Plant response rating, Corn (corn; [4]): 0
Plant response rating, Corn (corn; [5]): 0
Corn plant response rating (corn; [6]): 0
Corn plant response rating (corn; [7]): 0
Corn plant response rating (corn; [8]): 0
Blackgrass plant response rating (blackgrass; [1]): 0
Blackgrass plant response rating (blackgrass; [2]): 6
Plant response rating, Blackgrass (blackgrass; [3]): 0
Plant response rating, Blackgrass (blackgrass; [4]): 0
Plant response rating, Blackgrass (blackgrass; [5]): 2
Blackgrass plant response rating (blackgrass; [6]): 7
Blackgrass plant response rating (blackgrass; [7]): 0
Blackgrass plant response rating (blackgrass; [8]): 6
Redroot pigweed plant response rating (pigweed; [1]): 0
Redroot pigweed plant response rating (pigweed; [2]): 0
Plant response rating, Redroot pigweed (pigweed; [3]): 0
Plant response rating, Redroot pigweed (pigweed; [4]): 0
Plant response rating, Redroot pigweed (pigweed; [5]): 6
Redroot pigweed plant response rating (pigweed; [6]): 9
Redroot pigweed plant response rating (pigweed; [7]): 0
Redroot pigweed plant response rating (pigweed; [8]): 0
Barnyardgrass plant response rating (bamyardgrass; [1]): 0
Barnyardgrass plant response rating (bamyardgrass; [9]): 0
Barnyardgrass plant response rating (bamyardgrass; [10]): 0
Barnyardgrass plant response rating (bamyardgrass; [11]): 0
Plant response rating, Barnyardgrass (bamyardgrass; [12]): 0
Barnyardgrass plant response rating (bamyardgrass; [13]): 0
Barnyardgrass plant response rating (bamyardgrass; Rate 2000 g/ha, Pre-emergence (as headed), scale 0 to 10, 0 no effect, 10 complete control): 9
Barnyardgrass plant response rating (bamyardgrass; [14]): 0
Bedstraw plant response rating (bedstraw; [1]): 0
Plant response rating, Bedstraw (bedstraw; [3]): 0
Plant response rating, Bedstraw (bedstraw; [4]): 0
Plant response rating, Bedstraw (bedstraw; [5]): 0
Bedstraw plant response rating (bedstraw; [6]): 0
Bedstraw plant response rating (bedstraw; [7]): 0
Wild oats plant response rating (wild oat; [1]): 0
Wild oats plant response rating (wild oat; [2]): 0
Plant response rating, Wild oats (wild oat; [4]): 0
Plant response rating, Wild oats (wild oat; [5]): 0
Wild oats plant response rating (wild oat; [6]): 0
Wild oats plant response rating (wild oat; [7]): 0
Morningglory plant response rating (morningglory; [1]): 0
Morningglory plant response rating (morningglory; [2]): 1
Plant response rating, Morningglory (morningglory; [3]): 0
Plant response rating, Morningglory (morningglory; [4]): 0
Plant response rating, Morningglory (morningglory; [5]): 0
Morningglory plant response rating (morningglory; [6]): 0
Morningglory plant response rating (morningglory; [7]): 0
Morningglory plant response rating (morningglory; [8]): 2
Rice plant response rating (rice; [1]): 0
Rice plant response rating (rice; [9]): 0
Rice plant response rating (rice; [10]): 0
Rice plant response rating (rice; [11]): 0
Plant response rating, Rice (rice; [12]): 0
Rice plant response rating (rice; [13]): 0
Rice plant response rating (rice; [15]): 0
Rice plant response rating (rice; [14]): 0
S. Flatsedge plant response rating (smallflower flatsedge; [1]): 0
S. Flatsedge plant response rating (smallflower flatsedge; Pre-emergence, Rate 1000 g/ha, scale 0 to 10 (0 no effect, 10 complete control)): 0
S. Flatsedge plant response rating (smallflower flatsedge; [9]): 0
S. Flatsedge plant response rating (smallflower flatsedge; [10]): 0
Plant response rating, S. Flatsedge (smallflower flatsedge; [12]): 0
S. Flatsedge plant response rating (smallflower flatsedge; [15]): 8
S. Flatsedge plant response rating (smallflower flatsedge; [14]): 0
Soybean plant response rating (soybean; [1]): 1
Soybean plant response rating (soybean; [2]): 1
Plant response rating, Soybean (soybean; [3]): 0
Plant response rating, Soybean (soybean; [4]): 0
Plant response rating, Soybean (soybean; [5]): 0
Soybean plant response rating (soybean; [6]): 0
Soybean plant response rating (soybean; [7]): 1
Sugarbeets plant response rating (sugar beet; [1]): 0
Sugarbeets plant response rating (sugar beet; [2]): 0
Plant response rating, Sugarbeets (sugar beet; [3]): 0
Plant response rating, Sugarbeets (sugar beet; [4]): 3
Plant response rating, Sugarbeets (sugar beet; [5]): 3
Sugarbeets plant response rating (sugar beet; [6]): 6
Sugarbeets plant response rating (sugar beet; [7]): 0
Velvetleaf plant response rating (velvetleaf; [1]): 0
Velvetleaf plant response rating (velvetleaf; [2]): 0
Plant response rating, Velvetleaf (velvetleaf; [3]): 0
Plant response rating, Velvetleaf (velvetleaf; [4]): 0
Plant response rating, Velvetleaf (velvetleaf; [5]): 0
Velvetleaf plant response rating (velvetleaf; [6]): 2
Velvetleaf plant response rating (velvetleaf; [7]): 0
Rape plant response rating (rape; [1]): 0
Rape plant response rating (rape; [2]): 0
Plant response rating, Rape (rape; [3]): 0
Plant response rating, Rape (rape; [4]): 0
Plant response rating, Rape (rape; [5]): 0
Rape plant response rating (rape; [6]): 0
Rape plant response rating (rape; [7]): 0
Rape plant response rating (rape; [8]): 0
B. signalgrass plant response rating (surinam grass; [1]): 0
B. signalgrass plant response rating (surinam grass; [2]): 0
Plant response rating, B. signalgrass (surinam grass; [3]): 0
Plant response rating, B. signalgrass (surinam grass; [4]): 0
Plant response rating, B. signalgrass (surinam grass; [5]): 2
B. signalgrass plant response rating (surinam grass; [6]): 3
B. signalgrass plant response rating (surinam grass; [7]): 0
B. signalgrass plant response rating (surinam grass; [8]): 0
Nutsedge plant response rating (purple nutsedge; [1]): 0
Nutsedge plant response rating (purple nutsedge; [2]): 0
Plant response rating, Nutsedge (purple nutsedge; [3]): 0
Plant response rating, Nutsedge (purple nutsedge; [4]): 0
Plant response rating, Nutsedge (purple nutsedge; [5]): 0
Nutsedge plant response rating (purple nutsedge; [6]): 0
Nutsedge plant response rating (purple nutsedge; [7]): 0
Nutsedge plant response rating (purple nutsedge; [8]): 0
Cocklebur plant response rating (cocklebur; [1]): 0
Cocklebur plant response rating (cocklebur; [2]): 1
Plant response rating, Cocklebur (cocklebur; [3]): 0
Plant response rating, Cocklebur (cocklebur; [4]): 0
Plant response rating, Cocklebur (cocklebur; [5]): 0
Cocklebur plant response rating (cocklebur; [6]): 0
Cocklebur plant response rating (cocklebur; [7]): 1
Cocklebur plant response rating (cocklebur; [8]): 2
